Tests used:
[1] = biological target: Adenosine receptor A2a (Bos taurus)
[2] = biological target: T1, Adenosine receptor A1 (Bos taurus, UniProt P28190)
T1 sequence (P28190 whole entry): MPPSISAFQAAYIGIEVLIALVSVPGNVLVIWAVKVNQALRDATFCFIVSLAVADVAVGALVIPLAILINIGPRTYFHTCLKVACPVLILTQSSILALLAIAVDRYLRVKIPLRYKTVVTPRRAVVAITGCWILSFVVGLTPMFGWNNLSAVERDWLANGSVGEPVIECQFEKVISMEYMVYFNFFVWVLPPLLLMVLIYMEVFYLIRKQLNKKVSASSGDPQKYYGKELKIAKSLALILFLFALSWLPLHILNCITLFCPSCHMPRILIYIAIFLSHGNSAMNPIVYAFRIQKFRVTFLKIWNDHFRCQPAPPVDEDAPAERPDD
Description: Binding affinity against adenosine A1 receptor in bovine brain membranes by [3H]CHA displacement.

[3] = biological target: T2, Adenosine receptor A1 (Homo sapiens, UniProt P30542); assay: biochemical
T2 sequence (P30542 whole entry): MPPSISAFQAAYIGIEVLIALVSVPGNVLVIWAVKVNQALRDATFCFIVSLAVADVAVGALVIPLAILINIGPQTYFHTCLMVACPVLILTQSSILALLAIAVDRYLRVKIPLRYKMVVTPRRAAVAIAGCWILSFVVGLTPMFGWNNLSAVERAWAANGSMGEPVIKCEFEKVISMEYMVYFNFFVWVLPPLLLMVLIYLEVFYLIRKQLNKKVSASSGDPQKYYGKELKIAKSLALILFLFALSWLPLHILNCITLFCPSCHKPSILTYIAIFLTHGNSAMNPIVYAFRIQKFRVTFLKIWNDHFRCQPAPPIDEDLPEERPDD
Description: Binding affinity against human adenosine A1 receptor expressed in CHO cells using [3H]CHA

[4] = biological target: T3, Adenosine receptor A3 (Homo sapiens, UniProt P0DMS8); assay: biochemical
T3 sequence (P0DMS8 whole entry): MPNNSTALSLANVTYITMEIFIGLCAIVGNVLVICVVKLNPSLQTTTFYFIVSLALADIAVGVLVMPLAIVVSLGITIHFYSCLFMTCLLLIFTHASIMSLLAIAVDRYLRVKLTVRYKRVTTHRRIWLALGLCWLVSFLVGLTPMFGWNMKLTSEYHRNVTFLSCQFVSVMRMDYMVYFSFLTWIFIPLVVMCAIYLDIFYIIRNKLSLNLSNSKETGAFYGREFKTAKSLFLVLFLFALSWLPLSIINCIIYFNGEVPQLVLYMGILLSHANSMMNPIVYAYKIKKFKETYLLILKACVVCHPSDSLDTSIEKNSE
Description: Binding affinity against human adenosine A3 receptor expressed in CHO cells by [125I]AB-MECA displacement.

[5] = biological target: T4, Adenosine receptor A1 (Bos taurus) (UniProt P28190); assay: Inhibition of [3H]CHA binding to adenosine A1 receptor of bovine brain membranes; type: cell membranes
T4 sequence (whole entry): T1 sequence (P28190 whole entry)

[6] = system: Adenosine receptor A2a (Bos taurus); assay: Inhibition of [3H]-CGS- 21680 binding to adenosine A2a receptor of bovine striatal membranes
[7] = biological target: T5, Adenosine receptor A1 (Homo sapiens) (UniProt P30542); assay: Percent inhibition against human adenosine A1 receptor expressed in CHO cells using [3H]CHA at 10 uM; type: cell-based
T5 sequence (whole entry): T2 sequence (P30542 whole entry)

[8] = biological target: T6, Adenosine receptor A3 (Homo sapiens) (UniProt P0DMS8); assay: Percent inhibition against human adenosine A3 receptor expressed in CHO cells using [125I]AB-MECA at 1 uM; type: cell-based
T6 sequence (whole entry): T3 sequence (P0DMS8 whole entry)

[9] = biological target: Adenosine receptors; A1 & A3 (Homo sapiens) (UniProt P30542+P0DMS8); assay: Selectivity as ratio of affinity against human adenosine A3 and A1 receptors; type: protein assay
[10] = biological target: Adenosine receptors; A2a & A3 (Homo sapiens) (UniProt P0DMS8+P29274); assay: Selectivity as ratio of affinity against human adenosine A3 and A2A receptors; type: protein assay
[11] = biological target: T3, Adenosine receptor A3; assay: Effective concentration for inhibition of NECA-stimulated [35S]GTP-gamma-S, binding at human adenosine A3 receptor expressed in CHO cells; type: functional, cell-based

Sequence of Adenosine receptors; A2a & A3 (Homo sapiens) (P29274 whole entry, looked up, one chain of several): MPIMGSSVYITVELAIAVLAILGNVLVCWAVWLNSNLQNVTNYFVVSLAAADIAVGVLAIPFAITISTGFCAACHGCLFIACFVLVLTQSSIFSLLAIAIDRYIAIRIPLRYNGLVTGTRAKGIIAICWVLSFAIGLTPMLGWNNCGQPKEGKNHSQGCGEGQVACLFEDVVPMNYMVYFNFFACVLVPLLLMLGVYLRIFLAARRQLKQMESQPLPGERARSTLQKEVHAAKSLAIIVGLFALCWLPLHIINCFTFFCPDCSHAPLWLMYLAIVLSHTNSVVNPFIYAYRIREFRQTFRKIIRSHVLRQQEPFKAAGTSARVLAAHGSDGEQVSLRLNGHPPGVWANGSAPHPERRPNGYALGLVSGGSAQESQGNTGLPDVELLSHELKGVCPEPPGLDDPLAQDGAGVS

| Ki [2] | Ki [4] | I [5] | I [6] | Structure (SMILES) | other results |
| --- | --- | --- | --- | --- | --- |
| 26 nM | 11.2 nM |  |  | CC(=O)Oc1ccc(-n2nc3c(=O)[nH]c4ccccc4n3c2=O)cc1 | Ki [1]: 9700 nM; Ki [3]: 320 nM |
| 116 nM | 73.2 nM |  |  | Nc1nc2ccccc2n2c(=O)n(-c3ccc(O)cc3)nc12 | Ki [1]: 80 nM |
|  | 3600 nM |  |  | Nc1ccc(-n2nc3c(=O)[nH]c4ccccc4n3c2=O)cc1 |  |
|  | 47 nM | 19% | 16.5% | COc1ccc(-n2nc3c(N)nc4c([N+](=O)[O-])cccc4n3c2=O)cc1 | I [7]: 45% |
|  |  | 25% | 14% | COc1ccc(-n2nc3c(=O)[nH]c4c([N+](=O)[O-])cccc4n3c2=O)cc1 | I [7]: 0% |
|  |  | 11.9% | 31% | Nc1nc2ccccc2n2c(=O)n(-c3ccc([N+](=O)[O-])cc3)nc12 | I [8]: 28% |
| 578 nM | 429 nM |  | 0% | CN(C)c1ccc(-n2nc3c(=O)[nH]c4ccccc4n3c2=O)cc1 |  |
| 30.6 nM | 47 nM |  |  | O=c1[nH]c2ccccc2n2c(=O)n(-c3ccc(O)cc3)nc12 | Ki [3]: 168 nM |
| 91 nM |  |  | 0% | O=c1[nH]c2c([N+](=O)[O-])cccc2n2c(=O)n(-c3ccc([N+](=O)[O-])cc3)nc12 | I [8]: 24% |
|  |  |  |  | COc1ccc(-n2nc3c(N)nc4ccccc4n3c2=O)cc1 | Ki [3]: 69 nM |
|  | 0.6 nM | 19% | 21% | O=c1[nH]c2ccccc2n2c(=O)n(-c3ccc([N+](=O)[O-])cc3)nc12 | Selectivity ratio [9]: > 16600; Selectivity ratio [10]: > 16600; I [7]: 32%; EC50 [11]: 5.4 nM |
|  |  |  |  | COc1ccc(-n2nc3c(=O)[nH]c4ccccc4n3c2=O)cc1 | I [7]: 42% |
| 82 nM | 4.75 nM |  |  | Nc1nc2c([N+](=O)[O-])cccc2n2c(=O)n(-c3ccccc3)nc12 | Ki [3]: 870 nM |
|  |  | 38% | 4% | O=c1[nH]c2c([N+](=O)[O-])cccc2n2c(=O)n(-c3ccc(O)cc3)nc12 | I [8]: 21% |
|  | 83 nM | 16% | 23% | COc1ccc(-n2nc3c(=O)[nH]c4c(N)cccc4n3c2=O)cc1 |  |
| 61 nM | 176 nM |  |  | Nc1cccc2c1nc(N)c1nn(-c3ccc(O)cc3)c(=O)n12 | Ki [1]: 181 nM |
|  | 22 nM | 38% |  | COc1ccc(-n2nc3c(N)nc4c(N)cccc4n3c2=O)cc1 | Ki [1]: 1050 nM; Ki [3]: 186 nM |
| 155 nM |  |  | 2.7% | Nc1nc2c([N+](=O)[O-])cccc2n2c(=O)n(-c3ccc([N+](=O)[O-])cc3)nc12 | I [8]: 30% |
| 446 nM |  |  |  | Nc1nc2c([N+](=O)[O-])cccc2n2c(=O)n(-c3ccc(O)cc3)nc12 | Ki [1]: 1600 nM; I [8]: 45% |
| 996 nM |  |  | 36% | Nc1cccc2c1[nH]c(=O)c1nn(-c3ccc(O)cc3)c(=O)n12 | I [8]: 39% |
|  | 175 nM |  |  | CCOc1ccc(-n2nc3c(=O)[nH]c4ccccc4n3c2=O)cc1 |  |
|  |  | 21.3% | 0% | CC(=O)Oc1ccc(-n2nc3c(=O)[nH]c4c([N+](=O)[O-])cccc4n3c2=O)cc1 | I [8]: 20% |
| 537 nM | 203 nM |  |  | CCOc1ccc(-n2nc3c(N)nc4ccccc4n3c2=O)cc1 | Ki [1]: 13000 nM |

| Structure (SMILES) | Ki [2] | Ki [4] | I [5] | I [6] | other results |
| --- | --- | --- | --- | --- | --- |
| Nc1ccc(-n2nc3c(N)nc4ccccc4n3c2=O)cc1 | 48 nM | 335 nM |  |  | Ki [1]: 3.6 nM |
